Tests used:
Type in all cases: functional
[1] = system: Radical scavenging activity; assay: Antioxidant activity against assessed as DPPH radical scavenging activity at 10 '-3 M after 30 min by spectrophotometry relative to control
[2] = Antioxidant activity against assessed as superoxide scavenging activity measuring reduction of cytochrome C at 10 '-4 M by spectrophotometry relative to control; parameters: scale not given: the % may be the effect or the level left
[3] = Antioxidant activity against assessed as superoxide scavenging activity measuring reduction of cytochrome C at 10 '-3 M by spectrophotometry relative to control; parameters: scale not given: the % may be the effect or the level left
[4] = system: Radical scavenging activity; assay: Antioxidant activity against assessed as DPPH radical scavenging activity at 10 '-4 M after 30 min by spectrophotometry relative to control
[5] = system: Radical scavenging activity; assay: Antioxidant activity against assessed as DPPH radical scavenging activity at 2 x 10 '-4 M after 30 min by spectrophotometry relative to control
[6] = system: Radical scavenging activity; assay: Antioxidant activity against assessed as DPPH radical scavenging activity at 1.25 x 10 '-4 M after 30 min by spectrophotometry relative to control

O=C1S/C(=C\c2sc(SCc3ccccc3)nc2Cl)C(=O)N1Cc1ccc(F)cc1
Activity [1]: 21% | Activity [2]: 98% | Activity [3]: 52% | Activity [4]: 67%

O=C1S/C(=C\c2sc(Cl)nc2Cl)C(=O)N1Cc1ccc([N+](=O)[O-])cc1
Activity [1]: 9% | Activity [2]: 114% | Activity [3]: 339% | Activity [4]: 52%

O=C1S/C(=C\c2sc(SCc3ccccc3)nc2Cl)C(=O)N1Cc1ccccc1
Activity [1]: 26% | Activity [2]: 86% | Activity [3]: 50% | Activity [4]: 77%

O=C1S/C(=C\c2sc(SCc3ccccc3)nc2Cl)C(=O)N1Cc1ccc(Cl)cc1Cl
Activity [1]: 20% | Activity [2]: 101% | Activity [3]: 16% | Activity [4]: 58%

O=C1S/C(=C\c2sc(SCc3ccccc3)nc2Cl)C(=O)N1Cc1ccc(Br)cc1
Activity [1]: 19% | Activity [2]: 88% | Activity [3]: 35% | Activity [4]: 74%

O=C1S/C(=C\c2sc(Cl)nc2Cl)C(=O)N1Cc1ccc(Cl)cc1Cl
Activity [1]: 9% | Activity [2]: 110% | Activity [3]: 99% | Activity [4]: 12%

O=C1S/C(=C\c2sc(SCc3ccccc3)nc2Cl)C(=O)N1Cc1ccc([N+](=O)[O-])cc1
Activity [1]: 14% | Activity [2]: 96% | Activity [3]: 11% | Activity [4]: 43%

O=C1S/C(=C\c2sc(Cl)nc2Cl)C(=O)N1Cc1ccccc1
Activity [1]: 12% | Activity [2]: 352% | Activity [3]: 154% | Activity [4]: 47%

O=C1S/C(=C\c2sc(Cl)nc2Cl)C(=O)N1Cc1ccc(Br)cc1
Activity [1]: 9% | Activity [2]: 127% | Activity [3]: 124% | Activity [4]: 28%

O=C1S/C(=C\c2sc(Cl)nc2Cl)C(=O)N1Cc1ccc(Cl)cc1
Activity [1]: 57% | Activity [2]: 32% | Activity [3]: 9% | Activity [4]: 73%

O=C1S/C(=C\c2sc(Cl)nc2Cl)C(=O)N1Cc1ccc(F)cc1
Activity [1]: 11% | Activity [2]: 129% | Activity [3]: 73% | Activity [4]: 28%

O=C1S/C(=C\c2sc(SCc3ccccc3)nc2Cl)C(=O)N1Cc1ccc(Cl)cc1
Activity [1]: 20% | Activity [2]: 91% | Activity [3]: 31% | Activity [4]: 72%

Cc1cc(C(C)(C)C)c(O)c(C(C)(C)C)c1
Activity [5]: 37% | Activity [1]: 17% | Activity [6]: 52%
